In test [1] the test system is normal human lung fibroblasts. Description: Western blot of α-smooth muscle actin (α-SMA) in TGFβ-treated fibroblasts. The format is cell-based. To be noted: for % Renormalization α-SMA: fibroblasts treated with TGFβ; for % Renormalization α-SMA / TGFβ-induced α-SMA protein level: western blot. How it is done:
(§1) Briefly, normal human lung fibroblasts (Lonza #CC-2512; cell passage numbers 2 through 5 were used for all experiments) were seeded (Day 0) and cultured in Dulbecco's modified Eagle medium (DMEM) supplemented with 10% fetal bovine serum (FBS), penicillin, streptomycin and glutamax (Invitrogen) at 37° C. in a humidified incubator with 5% CO2 overnight. On Day 1, cells were harvested, washed with phosphate buffered saline (PBS), and then incubated for 48 hours in fresh serum-free DMEM supplemented with penicillin, streptomycin, and glutamax.
(§2) After this 24 hour incubation, procollagen type 1 levels were measured by collecting culture media, centrifuging to pellet cellular debris, and stored at −80° C. Procollagen Type 1 C-Peptide (PIPC) was quantified using the (PIP) EIA kit (Clontech, Cat. No. MK101) according to manufacturer's instructions. The TGFβ-treated fibroblasts of this example were examined by ribosomal profiling (about 6×10^6 cells/10 cm plate) and western blot analysis (about 1×10^6 cells/well of a 6-well plate).
(§3) TGFβ-dependent activation of the PI3K/Akt/mTOR and ERK pathways were also examined by western blot analysis (about 1×10^6 cells/well from a 6-well plate). Briefly, cells were washed with PBS and lysed in 1× cell lysis buffer (Cell Signaling Technology, Inc., Danvers, Mass.) for 15 minutes at 4° C. Lysates were briefly sonicated, clarified by centrifugation for 15 minutes at 14,000 rpm, and then supernatants were collected. Protein concentration in the soluble fraction was determined by BCA protein assay (Thermo Scientific, Rockford, Ill.). Samples of protein (20 μg) were resolved on 4-20% Bis-Tris gradient gel (Invitrogen, Carlsbad, Calif.) and transferred to nitrocellulose membrane. The resulting blots were blocked for 1 hour at room temperature with Odyssey blocking solution (LI-COR) and then incubated with primary antibodies at 4° C. overnight. The following day, each blot was washed three times for 10 minutes in TBST, and then incubated with goat anti-rabbit fluorescent conjugated secondary antibody (IRDye 800 CW at 1:20,000; LI-COR) for 1 hour at room temperature. The blots were washed and scanned, and then specific proteins were detected by using the LI-COR Odyssey infrared imager. The following antibodies were used at 1:1000 dilution: anti-α-actin (Sigma #A2547), anti-phospho-4EBP(Ser65), anti-phospho-rpS6(Ser235/236)(#4858), anti-phospho-ERK1/2(Thr202/Tyr204)(#4370), anti-phospho-p70S6K(Thr421/Ser424)(#9204), anti-phospho-pAKT(Ser473), anti-phospho-MNK(Thr197/202), and anti-β-actin (#4970). Unless otherwise indicated, the antibodies were from Cell Signaling Technology, Inc. (Danvers, Mass.).
as §1, with “(Lonza;” for “(Lonza #CC-2512;”, “CO2 conditions” for “CO2”, “glutamax. On Day 3, cells were harvested, resuspended in fresh serum-free DMEM containing silvestrol (1, 5, 10, 75, 100, 500, or 1000 nM) and 10 ng/ml TGFβ, and cultured for 24 hours. Controls included untreated cells and cells treated with only TGFβ.” for “glutamax.”
(§4) After this 24 hour incubation, procollagen type 1 levels were measured by collecting culture media, centrifuging to pellet cellular debris, and stored at −80° C. Procollagen Type 1 C-Peptide (PIPC) was quantified using the (PIP) EIA kit (Clontech) according to manufacturer's instructions. The TGFβ-treated fibroblasts of this example are examined by ribosomal profiling (about 6×10^6 cells/10 cm plate) and western blot analysis (about 1×10^6 cells/well of a 6-well plate).
(In general: A western blot detects proteins with antibodies after separation by electrophoresis.)

For test [2], the system named is normal human lung fibroblasts. The test is described as follows: Procollagen Type 1 C-Peptide (PIPC) EIA in culture media of TGFβ-treated fibroblasts. The format is cell-based. To be noted: for % Renormalization Collagen: fibroblasts treated with TGFβ, procollagen ELISA. How it is done:
as §1, §2
as §1, with “(Lonza;” for “(Lonza #CC-2512;”, “CO2 conditions” for “CO2”, “glutamax. On Day 3, cells were harvested, resuspended in fresh serum-free DMEM containing silvestrol (1, 5, 10, 75, 100, 500, or 1000 nM) and 10 ng/ml TGFβ, and cultured for 24 hours. Controls included untreated cells and cells treated with only TGFβ.” for “glutamax.”
as §4
The levels of α-SMA and procollagen type 1, markers of fibroblast transdifferentiation into myofibroblasts and a surrogate for fibrotic disease progression, were measured after a 24 hour incubation of fibroblasts in the presence or absence of TGFβ sieIF4A1 or siCont. The knockdown efficiency was determined by quantitating the eIF4A mRNA level by qPCR (data not shown) and assessing the protein level by western analysis (see FIG. 11).

Test [3] deals with AKT, 4EBP, S6K, and S6 of the mTOR pathway. The test is described as follows: Western blot of TGFβ-dependent phosphorylation of PI3K/Akt/mTOR and ERK pathway proteins. Format: cell-based, human. To be noted: PP242 0.625 μM, co-incubation with TGFβ, FIG. 2. How it is done:
as §3, with “The following antibodies were used at 1:1000 dilution: anti-α-actin (Sigma #A2547), anti-phospho-4EBP(Ser65), anti-phospho-rpS6(Ser235/236)(#4858), anti-phospho-ERK1/2(Thr202/Tyr204)(#4370), anti-phospho-p70S6K(Thr421/Ser424)(#9204), anti-phospho-pAKT(Ser473), anti-phospho-MNK(Thr197/202), and anti-β-actin (#4970). Unless otherwise indicated, the antibodies were from Cell Signaling Technology, Inc. (Danvers, Mass.).” left out

Structures are written as SMILES.

As to `Cc1cc(C2CCCCC2)n(O)c(=O)c1.NCCO` [CPX, ciclopirox oloamine], in test [1] (24 hours), the “% Renormalization α-SMA” value was “+++ (+++ = >60%)”. Besides, the “% Renormalization Collagen” value in test [2] (24 hours) is reported as “+++ (+++ = >60%)”.

In the case of `CC(C)n1nc(-c2cc3cc(O)ccc3[nH]2)c2c(N)ncnc21` [PP242], in test [1] (10 ng/ml TGFβ, 24 hours), the “TGFβ-induced α-SMA protein level” value is listed as “reduction of the α-SMA protein level in a dose dependent manner”. In addition, the α-SMA level entry in test [1] (PP242 0.625 μM, co-incubation with TGFβ, FIG. 2) is “decrease in α-SMA to pretreatment levels”. The “% Renormalization α-SMA” value in test [1] (24 hours) is reported as “+++ (+++ = >60%)”. Moreover, in test [3], the “TGFβ-dependent increases in phosphorylation of AKT, 4EBP, S6K, and S6” value was “sufficient to abolish”. In test [2] (24 hours), the “% Renormalization Collagen” value is reported as “+++ (+++ = >60%)”.

Regarding `COC(=O)[C@H]1[C@@H](O)[C@@]2(O)c3c(OC)cc(O[C@@H]4O[C@@H]([C@H](O)CO)CO[C@H]4OC)cc3O[C@@]2(c2ccc(OC)cc2)[C@@H]1c1ccccc1` [Silvestrol], the “ratio of α-SMA to β-actin at higher silvestrol concentrations” value in test [1] (10 ng/ml TGFβ, 24 hours, FIG. 10) is listed as “the same as in untransformed, untreated fibroblasts”. Further, the “TGFβ-induced α-SMA protein level” value in test [1] (10 ng/ml TGFβ, 24 hours) is “reduction of the α-SMA protein level in a dose dependent manner”. The EC50 (commonly the concentration that produces a half-maximal response) in test [1] (Homo sapiens, Fibroblast, 24 h, read-out: EC50 for reduction of the α-SMA protein level) is around 0.011 µM; in test [2] (Homo sapiens, Fibroblast, 24 h, read-out: EC50 for blocking the TGFβ-induced increase in procollagen production), around 0.012 µM. The “% Renormalization α-SMA” value in test [1] (24 hours) is reported as “+++ (+++ = >60%)”. Also, in test [2] (24 hours), the “% Renormalization Collagen” value is recorded as “+++ (+++ = >60%)”. For the same molecule, the “extent of inhibition of procollagen at higher concentrations, of untreated TGFβ-transformed myofibroblasts” value in test [2] (higher concentrations, saturable, 10 ng/ml TGFβ, 24 hours) is listed as “about 90%”. The “inhibition of procollagen relative to untreated, untransformed control fibroblasts” value in test [2] (higher concentrations, 10 ng/ml TGFβ, 24 hours) is on record as “about 80%”.

For the molecule `CC(C=CC(=O)NO)=CC(C)C(=O)c1ccc(N(C)C)cc1` (stereo not shown) [TSA, 7-[4-(dimethylamino)phenyl]-N-hydroxy-4,6-dimethyl-7-oxohepta-2,4-dienamide], in test [1] (24 hours), the “% Renormalization α-SMA” value was “++ (++ = 30-60%)”. For the same molecule, in test [2] (24 hours), the “% Renormalization Collagen” value is “+++ (+++ = >60%)”.

As to `Cc1ccc(=O)n(-c2ccccc2)c1` [pirfenidone, 5-methyl-1-phenylpyridin-2-one], in test [1] (24 hours), the “% Renormalization α-SMA” value is “+++ (+++ = >60%)”. Moreover, the “% Renormalization Collagen” value in test [2] (24 hours) is given as “+++ (+++ = >60%)”.

For the origin of these results see patent US9993494B2, “Compositions and methods for treating fibrotic disease” (eFFECTOR Therapeutics, Inc., priority 2014, dated 2018).
